Measurements: publication PMC6008489 (Bioorganic & Medicinal Chemistry, 2018)
Structures can show the parent of a compound that is named as a salt.

Legend:
[1] = target: T1, MPS1 (Homo sapiens, UniProt P33981); assay type: biochemical; conditions: for Ki: calculated from mean IC50 using the Cheng-Prusoff equation; for MPS1 ligand efficiency (LE): from Ki
T1 sequence (P33981 1-857): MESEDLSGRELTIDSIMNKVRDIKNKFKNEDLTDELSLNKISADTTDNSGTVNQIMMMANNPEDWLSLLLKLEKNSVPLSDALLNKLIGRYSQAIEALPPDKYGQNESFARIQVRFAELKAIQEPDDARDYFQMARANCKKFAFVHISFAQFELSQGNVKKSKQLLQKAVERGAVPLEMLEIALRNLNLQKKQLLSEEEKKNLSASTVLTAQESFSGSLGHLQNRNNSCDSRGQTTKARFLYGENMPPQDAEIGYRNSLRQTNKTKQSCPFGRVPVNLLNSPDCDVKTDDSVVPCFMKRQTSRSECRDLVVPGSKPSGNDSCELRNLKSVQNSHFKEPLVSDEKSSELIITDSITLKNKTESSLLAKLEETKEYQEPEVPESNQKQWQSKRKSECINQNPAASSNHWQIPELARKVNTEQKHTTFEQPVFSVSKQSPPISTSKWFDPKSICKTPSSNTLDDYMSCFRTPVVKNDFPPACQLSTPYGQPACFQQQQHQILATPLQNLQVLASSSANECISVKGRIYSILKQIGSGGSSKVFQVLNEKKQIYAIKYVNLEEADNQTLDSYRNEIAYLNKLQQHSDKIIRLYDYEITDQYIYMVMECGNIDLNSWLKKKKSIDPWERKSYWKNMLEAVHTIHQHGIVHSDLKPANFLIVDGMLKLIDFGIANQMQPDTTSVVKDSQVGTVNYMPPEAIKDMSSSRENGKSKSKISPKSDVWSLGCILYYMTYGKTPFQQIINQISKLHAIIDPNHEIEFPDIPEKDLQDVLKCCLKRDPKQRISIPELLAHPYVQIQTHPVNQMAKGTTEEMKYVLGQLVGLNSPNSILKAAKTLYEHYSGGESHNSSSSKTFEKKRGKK
Method: (§1) IC50 values were obtained for an expanded version of the fragment library using the previously described mobility shift assay.[44] Subsequently, Ki values were estimated from IC50 values to allow better comparison of the activity against targets which were measured at different substrate concentrations (Supplementary data Table 1).
(§2) IC50 values for MPS1, Aurora A and Aurora B inhibition were determined as previously described,[44] and Ki values were estimated from the mean IC50 values using the Cheng-Prusoff equation.[48]
(§3) Kinase [ATP] (M) [Enzyme] (nM) [Peptide Substrate] (M) MgCl2 (mM)
(§4) For all compounds, IC50 values for MPS1, Aurora A, and Aurora B were determined
(§5) using MPS1 and Aurora A/B mobility shift assays as described previously.1 IC50
(§6) values were calculated from a four-parameter logistic fit of percentage inhibition
(§7) versus concentration (at 8 compound concentrations) using GraphPad Prism 5
(§8) (GraphPad Software, Inc., CA, USA). Mean IC50 values were determined from two
(§9) independent measurements each carried out in duplicate. Ki values were estimated
(§10) from the mean IC50 values using the Cheng-Prusoff equation.

[2] = target: T2, Aurora A (Homo sapiens, UniProt O14965); assay type: biochemical; conditions: for Ki: calculated from mean IC50 using the Cheng-Prusoff equation, read-out: AurA Ki; for AurA ligand efficiency (LE): from Ki
T2 sequence (O14965 1-403): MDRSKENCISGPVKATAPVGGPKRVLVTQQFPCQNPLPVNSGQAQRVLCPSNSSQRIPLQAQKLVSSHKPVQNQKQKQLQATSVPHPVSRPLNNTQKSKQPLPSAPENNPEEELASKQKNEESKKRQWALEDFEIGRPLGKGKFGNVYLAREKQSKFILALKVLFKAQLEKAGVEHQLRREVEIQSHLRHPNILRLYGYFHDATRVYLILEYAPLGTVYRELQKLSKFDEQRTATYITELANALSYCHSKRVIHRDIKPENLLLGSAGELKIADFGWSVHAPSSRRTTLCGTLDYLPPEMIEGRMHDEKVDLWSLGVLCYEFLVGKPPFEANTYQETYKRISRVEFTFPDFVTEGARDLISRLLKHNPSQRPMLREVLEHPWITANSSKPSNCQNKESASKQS
Method: as §1, §2, §3, §4, §5, §6, §7, §8, §9, §10

[3] = target: Aurora B (Homo sapiens, UniProt Q96GD4); assay type: biochemical; conditions: for Ki: calculated from mean IC50 using the Cheng-Prusoff equation, read-out: AurB Ki; for AurB ligand efficiency (LE): from Ki;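 on all read-outs here: aurora B inhibition measured in a mobility shift assay, underlying mean IC50 taken from two independent duplicate runs at 8 compound concentrations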
Method: as §1, §2, §3, §4, §5, §6, §7, §8, §9, §10

[4] = target: T1, MPS1; assay: biochemical; conditions: read-out: % Inhibition MPS1
Method: (§11) In order to test the biochemical activity of our fragment library, a panel of 26 structurally diverse protein kinases was used.
(§12) Screening of 26 kinases using a mobility shift assay
(§13) A mobility shift assay to determine kinase inhibition was carried out using a
(§14) modified version of the ProfilerPro assay kit 1 (Perkin Elmer, Coventry, UK)
(§15) including MPS1 and Aurora B. Each kit contained an enzyme plate, a substrate
(§16) plate, reconstitution buffer, 1 M DTT, protease inhibitor cocktail and termination
(§17) buffer. Test compounds were added as a solution in DMSO.
(§18) peptide phosphorylation assay was carried out as per the manufacturer’s
(§19) instructions. The electrophoretic separation and analysis of the phosphorylated
(§20) and non-phosphorylated peptides was carried out on a 4-sipper chip using a
(§21) LabChip EZReader II (Perkin Elmer). Results were expressed as % inhibition of
(§22) peptide phosphorylation relative to control wells for 0 % (no test compound) and
(§23) 100 % (no ATP) inhibition. The percentage inhibition was calculated using the
(§24) % Inhibition = [1 - (% Conversion Sample / % Conversion 0% Inhibition Control)] x 100

[5] = target: T3, SRC (Homo sapiens, UniProt P12931); assay: 26-kinase panel mobility shift assay, single concentration; assay type: biochemical; conditions: read-out: % Inhibition SRC
T3 construct: purchased Perkin Elmer (ProfilerPro assay kit 1)
Method: as §11, §12, §13, §14, §15, §16, §17, §18, §19, §20, §21, §22, §23, §24

[6] = target: T4, INSR (Homo sapiens, UniProt P06213); assay: as above; assay type: biochemical; conditions: read-out: % Inhibition INSR
T4 construct: purchased Perkin Elmer (ProfilerPro assay kit 1)
Method: as §11, §12, §13, §14, §15, §16, §17, §18, §19, §20, §21, §22, §23, §24

[7] = target: T5, AKT2 (Homo sapiens, UniProt P31751); assay: as above; assay type: biochemical; conditions: read-out: % Inhibition AKT2
T5 construct: purchased Perkin Elmer ProfilerPro assay kit 1
T5 sequence (P31751 whole entry): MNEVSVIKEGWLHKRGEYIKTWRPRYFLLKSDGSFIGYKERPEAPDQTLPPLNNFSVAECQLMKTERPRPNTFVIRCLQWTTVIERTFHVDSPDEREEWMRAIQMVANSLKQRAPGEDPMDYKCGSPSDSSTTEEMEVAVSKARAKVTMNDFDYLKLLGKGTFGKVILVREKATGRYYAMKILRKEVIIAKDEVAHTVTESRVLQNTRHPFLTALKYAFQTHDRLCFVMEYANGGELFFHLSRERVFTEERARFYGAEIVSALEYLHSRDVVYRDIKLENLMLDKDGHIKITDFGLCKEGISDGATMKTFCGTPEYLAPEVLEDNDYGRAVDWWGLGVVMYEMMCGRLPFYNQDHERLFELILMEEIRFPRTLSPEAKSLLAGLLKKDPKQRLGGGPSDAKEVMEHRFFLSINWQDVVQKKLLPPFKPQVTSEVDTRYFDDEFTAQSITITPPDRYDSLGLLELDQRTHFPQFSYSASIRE
Method: as §11, §12, §13, §14, §15, §16, §17, §18, §19, §20, §21, §22, §23, §24

Sequence of Aurora B (Q96GD4 whole entry): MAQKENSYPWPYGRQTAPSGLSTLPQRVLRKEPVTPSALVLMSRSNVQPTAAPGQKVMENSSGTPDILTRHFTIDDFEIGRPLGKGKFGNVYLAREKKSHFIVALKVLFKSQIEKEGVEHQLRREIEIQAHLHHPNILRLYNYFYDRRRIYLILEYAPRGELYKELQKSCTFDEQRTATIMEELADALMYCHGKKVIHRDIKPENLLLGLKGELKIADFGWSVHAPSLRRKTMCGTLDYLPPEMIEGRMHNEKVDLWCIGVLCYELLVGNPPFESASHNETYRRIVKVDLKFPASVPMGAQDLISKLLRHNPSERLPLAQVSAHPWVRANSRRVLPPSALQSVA
T4 sequence (P06213 28-1382): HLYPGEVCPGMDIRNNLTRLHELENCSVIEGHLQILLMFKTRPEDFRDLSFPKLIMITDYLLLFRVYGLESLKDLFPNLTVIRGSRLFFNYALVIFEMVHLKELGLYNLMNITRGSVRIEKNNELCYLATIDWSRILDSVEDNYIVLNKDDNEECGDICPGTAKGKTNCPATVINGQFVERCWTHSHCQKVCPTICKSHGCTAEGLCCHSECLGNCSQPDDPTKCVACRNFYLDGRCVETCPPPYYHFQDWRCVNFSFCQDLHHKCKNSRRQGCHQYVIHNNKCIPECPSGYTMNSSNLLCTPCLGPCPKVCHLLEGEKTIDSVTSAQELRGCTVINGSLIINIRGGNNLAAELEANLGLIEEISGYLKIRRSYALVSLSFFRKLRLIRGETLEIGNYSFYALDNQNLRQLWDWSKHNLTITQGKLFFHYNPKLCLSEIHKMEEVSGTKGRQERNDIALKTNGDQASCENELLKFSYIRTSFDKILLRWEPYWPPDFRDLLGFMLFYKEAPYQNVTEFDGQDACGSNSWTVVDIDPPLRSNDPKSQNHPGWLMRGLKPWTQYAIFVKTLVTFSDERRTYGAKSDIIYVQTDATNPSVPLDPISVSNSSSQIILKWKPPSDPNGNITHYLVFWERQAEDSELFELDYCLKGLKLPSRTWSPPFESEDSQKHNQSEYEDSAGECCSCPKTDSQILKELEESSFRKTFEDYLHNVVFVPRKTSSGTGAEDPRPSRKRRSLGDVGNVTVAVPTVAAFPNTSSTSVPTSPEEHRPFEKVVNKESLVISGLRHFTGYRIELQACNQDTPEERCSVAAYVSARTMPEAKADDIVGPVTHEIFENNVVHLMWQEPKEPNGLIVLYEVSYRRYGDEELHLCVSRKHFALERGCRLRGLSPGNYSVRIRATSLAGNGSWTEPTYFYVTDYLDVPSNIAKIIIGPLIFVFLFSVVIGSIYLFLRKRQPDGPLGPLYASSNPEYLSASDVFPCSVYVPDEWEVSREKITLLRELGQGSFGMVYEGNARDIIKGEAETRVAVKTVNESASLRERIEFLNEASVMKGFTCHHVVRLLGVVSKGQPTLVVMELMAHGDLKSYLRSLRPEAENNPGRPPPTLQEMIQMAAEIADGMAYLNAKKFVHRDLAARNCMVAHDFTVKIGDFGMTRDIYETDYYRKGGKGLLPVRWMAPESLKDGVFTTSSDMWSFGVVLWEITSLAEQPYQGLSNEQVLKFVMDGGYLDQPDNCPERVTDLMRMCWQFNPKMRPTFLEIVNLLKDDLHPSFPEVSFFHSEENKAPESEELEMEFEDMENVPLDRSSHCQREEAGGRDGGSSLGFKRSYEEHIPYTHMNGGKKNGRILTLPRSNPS
T3 sequence (P12931 whole entry): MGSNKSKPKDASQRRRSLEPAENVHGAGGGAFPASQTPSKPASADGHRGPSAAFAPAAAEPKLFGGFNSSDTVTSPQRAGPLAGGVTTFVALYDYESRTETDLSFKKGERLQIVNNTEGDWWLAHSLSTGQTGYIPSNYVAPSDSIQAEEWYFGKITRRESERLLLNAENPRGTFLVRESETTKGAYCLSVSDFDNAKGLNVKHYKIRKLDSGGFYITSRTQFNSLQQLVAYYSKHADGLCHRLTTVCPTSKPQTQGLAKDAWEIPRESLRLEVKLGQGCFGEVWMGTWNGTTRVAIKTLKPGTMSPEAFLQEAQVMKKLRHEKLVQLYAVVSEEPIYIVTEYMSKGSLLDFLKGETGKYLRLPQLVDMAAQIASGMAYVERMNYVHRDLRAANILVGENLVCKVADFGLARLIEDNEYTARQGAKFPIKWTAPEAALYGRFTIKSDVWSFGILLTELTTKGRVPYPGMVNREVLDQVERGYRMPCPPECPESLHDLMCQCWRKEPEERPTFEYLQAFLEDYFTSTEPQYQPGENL

SMILES	Ki [1]	Ki [2]	Ki [3]	MPS1 ligand efficiency (LE) [1]	AurA ligand efficiency (LE) [2]	AurB ligand efficiency (LE) [3]	melting point	inhibition at 100 µM [4]	inhibition at 100 µM [5]	inhibition at 100 µM [6]	inhibition at 100 µM [7]
Cc1[nH]c(=O)c(C(N)=O)cc1-c1ccncc1 [Compound 14]	> 100 µM	> 100 µM	> 100 µM								
Nc1cc(-c2cncnc2)c[nH]c1=O [Compound 10, 3-Amino-5-(pyrimidin-5-yl)pyridin-2(1H)-one]	269 µM	89.6 µM	18.7 µM	0.35	0.39	0.46					
O=c1[nH]cc(-c2ccncc2)cc1NS(=O)(=O)c1ccccc1 [Compound 21]	> 100 µM	> 100 µM	> 100 µM				289 °C				
O=C(Nc1cc(-c2ccncc2)c[nH]c1=O)c1ccc(N2CCCCC2)cc1 [Compound 23]	2.9 µM	2.6 µM	7.4 µM	0.27	0.27	0.25	284 °C				
O=C(Nc1cc(-c2ccncc2)c[nH]c1=O)c1cc(F)cc(F)c1 [Compound 20]							293 °C				
Nc1cc(-c2cncnc2)c[nH]c1=O (as salt: sodium) [Compound 10, 3-Amino-5-(pyrimidin-5-yl)pyridin-2(1H)-one]							240 °C				
O=C(Nc1cc(-c2ccncc2)c[nH]c1=O)c1cccc(F)c1 [Compound 19, 3-Fluoro-N-(2-oxo-5-(pyridin-4-yl)-1,2-dihydropyridin-3-yl)benzamide]	> 100 µM	> 100 µM	> 100 µM				292 °C				
Cc1[nH]c(=O)c(C#N)cc1-c1ccncc1 [Compound 13, Milrinone, reference compound]	> 100 µM	> 100 µM	> 100 µM								
Nc1cc(-c2cccnc2)c[nH]c1=O [Compound 11]	98.1 µM	125 µM	97.2 µM	0.39	0.38	0.39					
Nc1cc(-c2ccccc2)cnc1O [Compound 9, 3-Amino-5-phenyl-pyridin-2-one]	128 µM	66.9 µM	70.3 µM	0.38	0.41	0.40					
COc1cccc(C(=O)Nc2cc(-c3ccncc3)c[nH]c2=O)c1 [Compound 17, 3-Methoxy-N-(2-oxo-5-(pyridin-4-yl)-1,2-dihydropyridin-3-yl)benzamide]	24.8 µM						287 °C	42%	59%	21%	50%
COc1cc(OC)cc(C(=O)Nc2cc(-c3ccncc3)c[nH]c2=O)c1 [Compound 18, 3,5-Dimethoxy-N-(2-oxo-5-(pyridin-4-yl)-1,2-dihydropyridin-3-yl)benzamide]	30.1 µM	> 100 µM	32.9 µM								
